Measurements from patent US10532066B2, “Surfactant lipids, compositions thereof, and uses thereof” (National Jewish Health, priority 2007, dated 2020).
Entries after “also recorded” stand apart in the source; their conditions may differ.

How the values were obtained:
[1] = test system: BALB/c mice; assay: Sepsis model: intravenous LPS, intratracheal phospholipids; type: in vivo, mouse; settings: LPS 50 μg i.v., phospholipids 50 μg intratracheal, 3 h
Procedure: FIG. 10. Anionic phospholipids modulate lung inflammation induced by intravenously administered LPS. Phospholipids were dried under nitrogen and hydrated, and liposomes were formed using a Liposofast™. […] At the same time, LPS (50 μg) in 200 μl of PBS was intravenously administered to mice.
Next, the effect of phospholipids were examined in a sepsis model in mice. LPS (50 μG/200 μl) was intravenously administered to mice via the tail vein and phospholipids were administered intratracheally at the same time. Three hours after stimulation, BALF was collected (FIG. 10).

[2] = test system: multiple TLRs; assay: Activation of primary bronchial epithelial cells by multiple TLRs (IL-8, Example 9); type: cell-based, human; settings: 200 ug/ml POPG, 24 h
Procedure: Monolayers of normal human bronchial epithelial cells were stimulated with the TLR3 agonist, polyI:C (0.1 ug/ml); the TLR5 agonist, flagellin (10 ng/ml) and the TLR7/8 agonist polyU (100 ug/ml) for 24 h in either the absence or presence of 200 ug/ml POPG, or POPC as indicated. Cultures were also treated with POPG or POPC alone, as additional controls. After 24 h the medium was harvested and centrifuged to remove non-adherent cells, and processed to detect IL-8 production by ELISA. Values shown in FIG. 33 are averages±SE for 3 independent experiments.

[3] = test system: Respiratory Syncytial Virus (RSV); assay: RSV-induced cytokine production in BEAS2B cells; type: cell-based
[4] = test system: RSV; assay: RSV binding to solid phase phospholipids (ELISA); design: species or system Respiratory Syncytial Virus (RSV); settings: 10 ug lipid per well, varying RSV
Procedure: Solid phase phospholipids (10 ug) were adsorbed to microtiter wells by evaporation of ethanol solvent. The wells were blocked with albumin and exposed to varying concentrations of RSV as shown in the left panel of FIG. 37. The wells were washed 3 times with phosphate buffered saline and the bound virus was detected by ELISA using polyclonal rabbit anti-RSV.

[5] = test system: RSV; assay: RSV binding to Hep2 cells (FACScan); type: cell-based, Respiratory Syncytial Virus (RSV); settings: Hep2, multiplicity 50, 37 C 10 min, lipid 200 ug/ml
Procedure: Suspensions of 3×10^5 Hep2 cells were treated with RSV at a multiplicity of 50, at 37 C for 10 min, in either the absence of lipid, or the presence of 200 ug/ml POPG, or POPC, as indicated. The cells were next shifted to 0 C and washed 3 times with PBS. The cells were then incubated with monoclonal mouse anti-RSV antibody for 1 h at 0 C in PBS containing 5% BSA. The unbound antibody was removed by washing the cells 3 times with PBS, 5% BSA. Next, the cells were incubated with phycoerythrin conjugated rabbit anti-mouse antibody in PBS, 5% BSA for 2 h. Following this incubation the cells were washed 3 times with PBS and fixed overnight with 1% buffered formalin. The fixed cell preparation was washed 3 times with PBS and subjected to FACScan analysis as shown in the left panel of FIG. 38. The summary of the mean fluorescence intensity (MFI) for all conditions is shown in the right panel of FIG. 38.

[6] = test system: RSV; assay: RSV plaque progression in Hep2 monolayers, lipid in agar overlay; type: cell-based, Respiratory Syncytial Virus (RSV); settings: lipid in agar overlay 5 hours after virus, POPG 200-500 ug/ml, POPC 500 ug/ml, 5 days
Procedure: Monolayers of Hep2 cells were subjected to RSV infection at levels that produce ca 100 plaques per well in quantitative plaque assays. The virus was incubated with the cells for 5 hours prior to agar overlay. The agar overlays contained either no additions, or POPG (200-500 ug/ml) or POPC (500 ug/ml).
The effects of POPG upon plaque formation as shown in Panel a of FIG. 39 were quantified in 3 independent experiments and are presented in this figure. The left panel of FIG. 40 provides the numbers of definite, and minute indefinite plaques formed in the absence and presence of POPG (200-500 ug/ml) as indicated. The right panel of FIG. 40 provides the numbers of definite plaques observed in the absence and presence of either POPG or POPC (200-500 ug/ml) as indicated.

[7] = target: T1, TLR1 (Homo sapiens, UniProt Q15399); assay: TLR agonist IL-8 production in primary human neutrophils, TLR1; type: cell-based; design: endogenous in cells; host or cells: primary human neutrophils; settings: Pam3Cys, 5-24 h
T1 sequence (Q15399 25-786): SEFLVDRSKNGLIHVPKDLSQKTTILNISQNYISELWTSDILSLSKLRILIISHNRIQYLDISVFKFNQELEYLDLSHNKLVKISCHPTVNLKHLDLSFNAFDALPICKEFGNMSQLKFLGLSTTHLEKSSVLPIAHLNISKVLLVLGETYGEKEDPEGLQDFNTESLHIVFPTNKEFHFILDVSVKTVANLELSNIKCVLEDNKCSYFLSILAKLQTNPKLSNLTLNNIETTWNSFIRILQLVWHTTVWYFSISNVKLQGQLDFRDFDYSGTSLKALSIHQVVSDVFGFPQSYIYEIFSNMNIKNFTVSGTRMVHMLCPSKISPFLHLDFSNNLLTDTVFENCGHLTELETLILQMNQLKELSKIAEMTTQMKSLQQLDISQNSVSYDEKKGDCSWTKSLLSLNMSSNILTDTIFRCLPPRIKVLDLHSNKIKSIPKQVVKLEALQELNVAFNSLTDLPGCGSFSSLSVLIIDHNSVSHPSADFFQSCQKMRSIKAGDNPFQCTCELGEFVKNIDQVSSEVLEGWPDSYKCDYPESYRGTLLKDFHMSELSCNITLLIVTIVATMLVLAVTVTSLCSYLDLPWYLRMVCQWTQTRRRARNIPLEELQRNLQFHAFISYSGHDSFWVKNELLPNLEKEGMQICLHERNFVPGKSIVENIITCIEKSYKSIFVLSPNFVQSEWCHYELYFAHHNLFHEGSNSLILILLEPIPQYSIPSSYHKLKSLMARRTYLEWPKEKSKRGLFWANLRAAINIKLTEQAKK
Procedure: In this experiment, multiple TLRs were stimulated with defined TLR agonists for 5-24 h as indicated, and the IL-8 production was measured. In each case the maximal stimulation by agonist is set at 100% and the antagonism by POPG is expressed as the relative % response. The Controls consist of no treatment, or treatment with POPG, in the absence of agonist as indicated. The agonists for the TLRs consist of Pam3Cys for TLR1/2, double stranded RNA (poly IC) for TLR3, Gram-negative lipopolysaccharide (LPS) for TLR4, and single stranded RNA (polyU) for TLR7/8.

[8] = RSV multiplicity 3, 48 h, lipid 200 ug/ml

CCCCCCCC/C=C\CCCCCCCC(=O)O[C@H](COC(=O)CCCCCCCCCCCCCCC)COP(=O)(O)OCC(O)CO (stereo partly shown) [POPG, palmitoyl-oleoyl-phosphatidylglycerol]
KC levels in BALF [1]: significantly attenuated | MIP-2 levels in BALF [1]: significantly attenuated | TNF-α secretion in BALF [1]: significantly inhibited | infiltration of neutrophils in BALF [1]: effectively inhibited | activation of primary bronchial epithelial cells by multiple TLRs (IL-8) [2]: inhibits activation | IL-8 production, varying concentrations of POPG ([3]; RSV multiplicity 0.5, 48 hours): inhibits IL-8 production from epithelial cells in a concentration-dependent manner | inflammatory cytokine production (IL-6, IL-8) ([3]; RSV multiplicity 0.5-1, 48 h, 200 ug/ml): suppresses | IL-6 production [3, 8]: inhibits | IL-8 production [3, 8]: inhibits | binding of RSV to solid phase phospholipid [4]: binds RSV with high affinity and specificity | binding of RSV to epithelial cells [5]: blocks the binding | progression of RSV infection (plaques) [6]: arrests the progression; also recorded: indefinite minute plaques | activity of TLR1 (IL-8 production) [7]: inhibits
